Experimental data published in patent publication EP1007514B1, “HETEROCYCLIC KETONES AS NPY Y5 ANTAGONISTS” (BAYER CORPORATION, priority 1997, dated 1999).

What was measured:
human NPY Y2 = molecular target: T1, human NPY Y2 (Homo sapiens, UniProt P49146); assay: NPY Y2 receptor membrane binding, [125I]PYY; settings: membrane protein; 25 pM [125I]PYY; test compounds at 5 µM final concentration; read-out: IC50 (µM) NPY receptor indicated hY2
T1 sequence (P49146 1-381): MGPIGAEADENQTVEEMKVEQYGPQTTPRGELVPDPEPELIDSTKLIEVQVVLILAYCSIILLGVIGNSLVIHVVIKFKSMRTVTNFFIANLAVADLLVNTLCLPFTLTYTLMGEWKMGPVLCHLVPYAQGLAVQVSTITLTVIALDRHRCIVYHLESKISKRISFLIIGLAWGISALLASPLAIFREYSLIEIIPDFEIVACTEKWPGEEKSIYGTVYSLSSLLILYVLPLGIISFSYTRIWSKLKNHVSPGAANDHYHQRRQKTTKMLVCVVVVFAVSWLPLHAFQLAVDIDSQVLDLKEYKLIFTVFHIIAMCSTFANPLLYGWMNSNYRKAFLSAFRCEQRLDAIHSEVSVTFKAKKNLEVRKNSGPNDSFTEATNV
Description: Assays to determine binding affinity for human NPY Y2 and Y4/PP1 receptor subtypes are performed on GF/C Millipore 96-well plates pretreated with 0.02% polyethylenimine. […] Samples consist of membrane protein, 25 pM [^125I]PYY and test compounds at 5 µM final concentration. Nonspecific binding is defined by 1 µM NPY. The binding buffer for human Y4/PP1 binding consists of 137 mM NaCl, 5.4 mM KCl, 0.44 mM KH2PO4, 1.26 mM CaCl2, 0.81 mM MgSO4, 20 mM HEPES, 1 mM dithiothreitol, 0.1% bacitracin, 100 mg/l streptomycin sulfate, 1 mg/l aprotinin, 10 mg/ml soybean trypsin inhibitor and 0.3% BSA, pH 7.4. Samples consist of membrane protein, 50 pM human [^125I] human PP (hPP:NEN DuPont, Boston MA) and test compounds diluted to a final concentration of 5 µM. One µM hPP is used to define nonspecific binding. After a 2 hour incubation at room temperature with constant mixing, the samples are aspirated on a vacuum manifold, and rinsed with ice-cold binding buffer. The amount of radioactivity in each well is quantitated with either gamma counting or liquid scintillation.

[1] = molecular target: T2, human NPY Y1 receptor subtype (Homo sapiens, UniProt P25929); assay: NPY Y1 receptor binding, [125I]PYY on SK-N-MC cells; settings: test compounds at 5 µM final concentration, [125I]PYY about 50 pM, read-out: IC50 (µM) NPY receptor indicated hY1
T2 construct: host or cells: SK-N-MC cells
T2 sequence (P25929 1-384): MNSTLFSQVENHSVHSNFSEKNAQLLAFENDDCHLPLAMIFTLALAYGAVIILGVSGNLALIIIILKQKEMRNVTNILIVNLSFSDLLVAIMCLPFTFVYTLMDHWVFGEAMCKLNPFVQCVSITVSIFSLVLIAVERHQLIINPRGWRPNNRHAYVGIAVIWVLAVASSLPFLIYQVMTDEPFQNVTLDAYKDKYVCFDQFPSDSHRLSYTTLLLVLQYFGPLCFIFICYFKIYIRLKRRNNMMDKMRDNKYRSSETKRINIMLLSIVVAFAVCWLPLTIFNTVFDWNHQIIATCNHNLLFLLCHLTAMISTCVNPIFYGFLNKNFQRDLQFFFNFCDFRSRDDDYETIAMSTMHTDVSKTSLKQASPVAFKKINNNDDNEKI
Description: For instance, test compounds antagonistic to human NPY Y1 receptor subtype can be identified by a modified method of Gordon et al., J. Neurochem. 55:506-513,(1990), wherein SK-N-MC cells (ATCC, Rockville, ND) are plated in 24-well plates. Once confluent, the cells are rinsed with Dulbecco's phosphate buffered saline (DPBS). Cells are then preincubated in binding buffer containing serum-free DMEM, 25 mM HEPES (pH 7.3), 0.5% bovine serum albumin (BSA), 0.1% bacitracin and 0.1mM phenylmethylsulfonyl fluoride for 30 minutes at room temperature. Test compounds at a final concentration of 5 µM, and [^125I] PYY (about 50 pM:NEN-DuPont) are added to the wells, and the cells are incubated for an additional 3 hours at room temperature, followed by rinsing with ice-cold DPBS. Nonspecific binding is defined with 1 µM NPY. After lysing the cells with 1% Triton X-100, the amount of radioactivity in the lysates is quantitated with a gamma counter.

[2] = molecular target: T3, human NPY Y5 receptor subtype (Homo sapiens, UniProt Q15761); assay: NPY Y5 receptor membrane binding, [125I]PYY (human); settings: membrane protein; 75-100 pM [125I]PYY; 50% inhibition of specific binding; read-out: IC50 (µM) NPY receptor indicated hY5
T3 sequence (Q15761 1-445): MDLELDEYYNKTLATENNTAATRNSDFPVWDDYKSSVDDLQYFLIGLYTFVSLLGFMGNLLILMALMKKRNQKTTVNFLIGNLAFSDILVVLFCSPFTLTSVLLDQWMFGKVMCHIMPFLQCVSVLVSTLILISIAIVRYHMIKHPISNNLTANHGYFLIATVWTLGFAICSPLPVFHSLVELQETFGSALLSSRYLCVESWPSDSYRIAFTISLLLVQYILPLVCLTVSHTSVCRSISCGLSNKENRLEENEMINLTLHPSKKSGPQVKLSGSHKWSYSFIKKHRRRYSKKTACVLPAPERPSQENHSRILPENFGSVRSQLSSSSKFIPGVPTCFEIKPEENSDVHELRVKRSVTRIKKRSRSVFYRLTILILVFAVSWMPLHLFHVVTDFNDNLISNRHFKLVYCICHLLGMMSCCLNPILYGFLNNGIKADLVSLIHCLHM
Description: Assays to determine human and rat NPY Y5 receptor subtype binding affinity are performed on GF/C Millipore 96-well plates pretreated with 0.02% polyethylenimine. The binding buffer is 25 mM Tris, 120 mM NaCl, 5 mM KCl, 1.2 mM KH2PO4, 2.5 mM CaCl2, 1.2 mM MgSO4, 0.1% BSA and 0.5 mg/ml bacitracin, pH 7.4. Samples consist of membrane protein, 75-100 pM [^125I] PYY (porcine, NEN-DuPont) and test compounds diluted in binding buffer. Nonspecific binding is defined by 1 µM PYY. After a 2 hour incubation at room temperature with constant mixing, the samples are aspirated on a vacuum manifold and rinsed with ice-cold binding buffer. The amount of radioactivity in each well is quantitated with either gamma counting or liquid scintillation. IC50 values, which correspond to 50% inhibition of specific binding, are determined with non-linear regression analysis.

Compound | IC50 (human NPY Y2) [µM] | IC50 [1] [µM] | IC50 [2] [µM]
Cc1ccc(S(=O)(=O)CC(C(=O)c2nc3ccccc3s2)c2ccccc2)cc1 (stereo not drawn) [Compound 6, 1-Benzothizol-2-yl-2-phenyl-3-(toluene-4-sulfonyl)-propan-1-one] | > 5 | > 5 | 8.8
Cc1ccc(S(=O)(=O)CC(C(=O)c2nc3cc(C)c(C)cc3[nH]2)c2ccccc2)cc1 (stereo not drawn) [Compound 7, (5,6-Dimethyl-1H-benzoimidazol-2-yl)-2-phenyl-3-(toluene-4-sulfonyl)-propan-1-one] | 8.3 | > 5 | 0.06
Cc1ccc(SCC(C(=O)c2ncc[nH]2)c2ccccc2)cc1 (stereo not drawn) [Compound 2, (1H-Imidazol-2-yl)-2-phenyl-3-p-tolylsulfanyl-propan-1-one] | > 5 | > 5 | 0.83

Continued, values first:

IC50 (human NPY Y2) [µM] | IC50 [1] [µM] | IC50 [2] [µM] | Compound
> 5 | > 5 | 0.011 | COc1ccc(S(=O)(=O)CC(C(=O)c2nc3ccccc3[nH]2)c2ccccc2)cc1 (stereo not drawn) [Compound 10, 1-(1H-Benzoimidazol-2-yl)-3-(4-methoxy-benzenesulfonyl)-2-phenyl-propan-1-one]
> 5 | > 5 | 0.022 | O=C(c1nc2ccccc2[nH]1)C(CS(=O)(=O)c1ccccc1)c1ccccc1 (stereo not drawn) [Compound 8, 3-Benzenesulfonyl-1-(1H-benzoimidazol-2-yl)-2-phenyl-propan-1-one]
> 5 | > 5 | 0.08 | COc1ccc2[nH]c(C(=O)C(CS(=O)(=O)c3ccc(C)cc3)c3ccccc3)nc2c1 (stereo not drawn) [Compound 14, 1-(5-Methoxy-1H-benzoimidazol-2-yl)-2-phenyl-3-(toluene-4-sulfonyl)-propan-1-one]
